“Also recorded” adds a separate entry of the source.
Key:
[1] = Parallel artificial membrane permeability assay (PAMPA); type: in vitro ADME
Protocol: The parallel artificial membrane permeability assay (PAMPA) was performed using a 96-well pre-coated PAMPA plate system (Corning, Bedford, MA, USA). Solutions of test compounds and controls [metoprolol (Sigma-Aldrich, St. Louis, MO, USA) and nadolol (Sigma-Aldrich, St. Louis, MO, USA)] were prepared by diluting 10 mM stock solutions in DMSO with phosphate-buffered saline (PBS) at pH 6.5 to obtain a final concentration of 10 μM (final DMSO concentration ≤ 1%). The donor compartment was loaded with 300 μL of the prepared compound solutions, while the acceptor compartment received 200 μL of PBS pH 7.4. The plate was then assembled, and the system was incubated at 37 °C, with shaking at 100 rpm for 5 h. Samples of the initial donor solution (T0) were collected (10 μL) and transferred to an analysis plate. A quenching solution [10% water and 90% methanol: acetonitrile (50:50) + 50 nM tolbutamide (Sigma-Aldrich, St. Louis, MO, USA) as internal standard] was added (300 μL), along with 60 μL of PBS buffer pH 6.5. The analysis plate was stored at −20 °C. At the end of the incubation period, samples were collected from the donor and acceptor compartments and added to the analysis plate, following the same quenching procedure. The final concentrations of the compounds in the donor, acceptor, and T0 wells were quantified by an LCMS-8045 system (Shimazu, Kyoto, Japan). […]

[2] = tested on: SCC-25 cells; test: Microscopy of cells after incubation with compound; type: cell-based, human; conditions: 24 h of incubation, 9.45 μM, SCC-25 vs NOK-si
[3] = tested on: IL-6; test: Anti-inflammatory assay, IL-6 in LPS-stimulated THP-1 cells (CBA); type: cell-based, human; conditions: 2 and 4 µg/mL, 24 h
Protocol: (§1) For this assay, THP-1 (BCRJ cód. 0234) cells were cultured in Roswell Park Memorial Institute (RPMI-1640, Sigma-Aldrich; Saint Louis, MO, USA) media supplemented with 2 mM L-glutamine, 1 mM sodium pyruvate, 1.50 g/L of sodium bicarbonate, and 10% fetal bovine serum. For obtaining Macrophage-like cells, 250,000 cells per well were plated in a 24-well cell culture plate. A total of 20 ng/mL of Forbol 12-miristato-13-acetato (PMA) was added to each well, and the cells were incubated for 48 h at 37 °C with 5% CO2. After the 48 h, the wells were washed with 1X PBS, and fresh RPMI-1640 media was added. The cells were then incubated for 24 h at 37 °C and 5% CO2. For the cell’s stimulations, after the 24 h, the well was washed with PBS and fresh RPMI1640 media without fetal bovine serum added. For the positive controls of the assay, 3 wells were stimulated with LPS (1 ng/µL) diluted in the same volume and media used for the drugs stimulation. Two different concentrations (2 and 4 µg/mL) were evaluated for each molecule, which were determined to be non-cytotoxic through a cell viability assay. After a 24 h period, the supernatant was removed and used in the cytokine quantification assay. A kit for inflammatory cytokines, BD® Cytometric Bead Array CBA Human Inflammatory, was employed for this assay, containing the following human cytokines: IL-8, IL-1β, IL-6, and TNF. […]

[4] = tested on: HCT116 p53^−/− cells; test: SRB cytotoxicity assay on HCT116 p53-/- cells; type: cell-based, human; conditions: Homo sapiens, HCT-116, 48 h of treatment
Text: The SCC-25 (ATCC® CRL-1628™), Detroit-562 (ATCC® CCL-138™), and THP-1 (ATCC® TIB-202™) cells were purchased from Rio de Janeiro Cell Bank (Duque de Caxias, Brazil), and NOK-si was kindly provided by Prof. Carlos Rossa from the School of Dentistry—UNESP. All the cells were cultivated according to standard conditions. Human colorectal adenocarcinoma HCT116 cell lines (ATCC® CCL-247™) expressing p53 and its p53-null isogenic derivative (HCT116 p53^−/−) were provided by B. Vogelstein (The Johns Hopkins Kimmel Cancer Center, Baltimore, MD, USA).
HCT p53^+/+ and HCT p53^−/− cell lines were seeded in 96-well plates, with a concentration of 5000 cells/well, and allowed to adhere overnight. Afterwards, they were treated with serial dilutions of the compounds for an additional 48 h (compounds were prepared at 30 mM, in DMSO, and tested with a starting concentration of 50μM and 15 μM). Cells passed then through a series of essential steps (fixation with 10% trichloroacetic acid, for 1 h at 4 °C; staining with 0.4% sulforhodamine B (SRB); wash with 1% acetic acid; and solubilization with 10 mM Tris-Base); subsequently, absorbance was measured at 510 nm in a microplate reader (Biotek Instruments Inc., Synergy, MX, USA). IC50 values were determined using GraphPad Prism software, Version 7.0 (La Jolla, CA, USA).

[5] = tested on: TNF; test: Anti-inflammatory assay, TNF in LPS-stimulated THP-1 cells (CBA); type: cell-based, human
Protocol: For this assay, THP-1 (BCRJ cód. 0234) cells were cultured in Roswell Park Memorial Institute (RPMI-1640, Sigma-Aldrich; Saint Louis, MO, USA) media supplemented with 2 mM L-glutamine, 1 mM sodium pyruvate, 1.50 g/L of sodium bicarbonate, and 10% fetal bovine serum. For obtaining Macrophage-like cells, 250,000 cells per well were plated in a 24-well cell culture plate. A total of 20 ng/mL of Forbol 12-miristato-13-acetato (PMA) was added to each well, and the cells were incubated for 48 h at 37 °C with 5% CO2. After the 48 h, the wells were washed with 1X PBS, and fresh RPMI-1640 media was added. The cells were then incubated for 24 h at 37 °C and 5% CO2. For the cell’s stimulations, after the 24 h, the well was washed with PBS and fresh RPMI1640 media without fetal bovine serum added. For the positive controls of the assay, 3 wells were stimulated with LPS (1 ng/µL) diluted in the same volume and media used for the drugs stimulation. Two different concentrations (2 and 4 µg/mL) were evaluated for each molecule, which were determined to be non-cytotoxic through a cell viability assay. After a 24 h period, the supernatant was removed and used in the cytokine quantification assay. A kit for inflammatory cytokines, BD® Cytometric Bead Array CBA Human Inflammatory, was employed for this assay, containing the following human cytokines: IL-8, IL-1β, IL-6, and TNF. Standard cytokines were prepared in 9 different concentrations: 1:256, 1:128, 1:64, 1:32, 1:16, 1:8, 1:4, 1:2, and 1:1 (“top standard”). Analysis was performed using a Flow Cytometer FACS Aria Fusion BD (Bioscence, Houston, TX, USA). Data analysis was conducted using Prism software (version 10.4.1).

[6] = tested on: IL-8; test: Anti-inflammatory assay, IL-8 in LPS-stimulated THP-1 cells (CBA); type: cell-based, human; conditions: 2 and 4 µg/mL, 24 h
Protocol: as §1

[7] = tested on: SCC-25 cells; test: Annexin V-FITC/PI apoptosis/necrosis assay; type: cell-based, human; conditions: SCC-25, 44.3 μM, 24 h
Protocol: For the assessment of the type of cell death, the treatment groups were 44.3 μM, 22.1 μM, and 9.45 μM compound 5, and the negative control without any treatment (only DMEM medium). Then, after 24 h of treatment, cell suspensions of 1 × 10^6 mL^–^1 (SCC-25) of each experimental condition were labeled, and the assay was performed according to the manufacturer’s protocol with the FITC Annexin V/Dead Cell Apoptosis Kit (Life Technologies, Eugene, OR, USA). Annexin V-FITC conjugated (510 nm) and propidium iodide (PI, 610 nm) fluorescence intensity were detected by automatic reading with the Countess™ II FL Automated Cell Counter (Life Technologies, Carlsbad, CA, USA). The cell population was calculated as a percentage of apoptotic cells labeled only with annexin V-FITC conjugated (green), necrotic cells labeled only as PI (red), and late apoptotic/necrotic cells (green and red).

Q: With `COc1cccc(C(=O)/C=C/c2cccc(B(O)O)c2)c1` [Compound 5, (E)-(3-(3-(3-methoxyphenyl)-3-oxoprop-1-en-1-yl)phenyl)boronic acid] as the molecule, how does the permeability class [1] read?
A: high passive permeability

Q: And the Papp at 5 h, 10 μM ([1]; donor pH 6.5, acceptor pH 7.4, 5 h, 37 °C, read-out: PAMPA (Mean Pe))?
A: 175 nm/s

Q: What about the morphological alterations [2] of the same molecule?
A: morphological alterations suggesting cell death features

Q: And the “reduction of IL-6 levels” value [3]?
A: significantly reduced; also recorded: pronounced reduction

Q: What about the IC50 [4] of the same molecule?
A: 2.16 ± 0.31 µM

Q: What about the “TNF levels relative to untreated THP-1 cells” value ([5]; 7.1 μM) of the same molecule?
A: reducing them below those of untreated THP-1 cells

Q: And the “reduction of TNF levels” value ([5]; 2 and 4 µg/mL, 24 h)?
A: significantly reduced; also recorded: pronounced reduction

Q: And the “reduction of IL-8 levels” value [6]?
A: effectively reduced cytokine levels

Q: And the viability at 44.3 µM ([7]; Homo sapiens, read-out: proportion of viable cells)?
A: < 5%

Q: What about the “type of cell death” value ([7]; 22.1 μM and 9.45 μM) of the same molecule?
A: necrosis; also recorded: predominantly induces necrotic cell death

— article PMC12301034, “Design and Synthesis of Boronic Chalcones with Dual Anticancer and Anti-Inflammatory Activity” (Molecules, 2025)
